Data taken from ChEMBL document CHEMBL4507292 (2021).

What was measured:
[1] = molecular target: Receptor-interacting serine/threonine-protein kinase 2 (Homo sapiens) (UniProt O43353); conditions: Compound concentration 1000.0 nM
[2] = molecular target: Protein kinase C theta type (Homo sapiens) (UniProt Q04759); conditions: Compound concentration 1000.0 nM
[3] = molecular target: Serine/threonine-protein kinase 16 (Homo sapiens) (UniProt O75716); conditions: Compound concentration 1000.0 nM
[4] = molecular target: Cyclin-dependent kinase 4 (Homo sapiens) (UniProt P11802); conditions: Compound concentration 1000.0 nM
Cyclin-dependent kinase 4 (Homo sapiens), sequence (P11802 whole entry): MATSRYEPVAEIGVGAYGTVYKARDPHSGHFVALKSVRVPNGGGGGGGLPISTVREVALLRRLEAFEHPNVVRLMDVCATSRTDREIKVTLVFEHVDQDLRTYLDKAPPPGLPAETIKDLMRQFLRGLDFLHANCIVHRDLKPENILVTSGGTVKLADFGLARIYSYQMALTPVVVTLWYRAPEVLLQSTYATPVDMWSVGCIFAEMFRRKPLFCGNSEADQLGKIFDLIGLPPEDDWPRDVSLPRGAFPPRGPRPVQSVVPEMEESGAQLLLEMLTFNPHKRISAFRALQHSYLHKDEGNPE

[5] = molecular target: Serine/threonine-protein kinase 26 (Homo sapiens) (UniProt Q9P289); conditions: Compound concentration 1000.0 nM
[6] = molecular target: Mu-type opioid receptor (Homo sapiens) (UniProt P35372); conditions: Compound concentration 10.0 uM
Mu-type opioid receptor (Homo sapiens), sequence (P35372 whole entry): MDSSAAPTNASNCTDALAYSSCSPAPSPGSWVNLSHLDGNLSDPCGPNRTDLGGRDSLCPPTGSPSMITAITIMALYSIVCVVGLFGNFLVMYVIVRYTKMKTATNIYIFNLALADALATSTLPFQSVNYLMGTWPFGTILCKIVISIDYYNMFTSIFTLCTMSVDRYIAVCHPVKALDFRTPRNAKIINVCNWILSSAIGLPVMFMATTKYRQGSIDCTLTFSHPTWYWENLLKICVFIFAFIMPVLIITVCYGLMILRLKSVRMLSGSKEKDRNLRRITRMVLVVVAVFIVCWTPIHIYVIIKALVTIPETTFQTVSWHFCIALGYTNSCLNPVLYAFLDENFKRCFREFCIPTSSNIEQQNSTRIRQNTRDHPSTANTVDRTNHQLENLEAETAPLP

[7] = test system: Epidermal growth factor receptor (Homo sapiens), P00533 [UNDEFINED MUTATION]; conditions: Compound concentration 1000.0 nM
[8] = test system: Receptor-type tyrosine-protein kinase FLT3 (Homo sapiens), P36888 [R834Q]; conditions: Compound concentration 1000.0 nM
[9] = molecular target: Cyclin-dependent kinase 17 (Homo sapiens) (UniProt Q00537); conditions: Compound concentration 1000.0 nM
[10] = molecular target: Serine/threonine-protein kinase Nek7 (Homo sapiens) (UniProt Q8TDX7); conditions: Compound concentration 1000.0 nM
[11] = molecular target: Muscarinic acetylcholine receptor M2 (Homo sapiens) (UniProt P08172); conditions: Compound concentration 10.0 uM
Muscarinic acetylcholine receptor M2 (Homo sapiens), sequence (P08172 whole entry): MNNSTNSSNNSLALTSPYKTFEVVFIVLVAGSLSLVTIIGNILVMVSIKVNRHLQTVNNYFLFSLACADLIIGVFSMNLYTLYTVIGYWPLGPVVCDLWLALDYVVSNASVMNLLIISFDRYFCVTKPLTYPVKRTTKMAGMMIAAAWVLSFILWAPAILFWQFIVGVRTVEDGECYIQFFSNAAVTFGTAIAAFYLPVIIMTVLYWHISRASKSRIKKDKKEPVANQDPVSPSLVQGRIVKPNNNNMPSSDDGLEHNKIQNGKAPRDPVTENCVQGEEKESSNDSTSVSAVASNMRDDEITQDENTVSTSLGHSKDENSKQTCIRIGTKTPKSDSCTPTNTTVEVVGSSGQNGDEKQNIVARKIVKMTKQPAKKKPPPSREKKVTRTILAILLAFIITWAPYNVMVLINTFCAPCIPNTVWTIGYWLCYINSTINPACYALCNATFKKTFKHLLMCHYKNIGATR

[12] = test system: Epidermal growth factor receptor (Homo sapiens), P00533 [L858R,T790M]; conditions: Compound concentration 1000.0 nM
[13] = molecular target: T1, Alpha-1D adrenergic receptor (Homo sapiens) (UniProt P25100); conditions: Compound concentration 10.0 uM
T1 sequence (whole entry): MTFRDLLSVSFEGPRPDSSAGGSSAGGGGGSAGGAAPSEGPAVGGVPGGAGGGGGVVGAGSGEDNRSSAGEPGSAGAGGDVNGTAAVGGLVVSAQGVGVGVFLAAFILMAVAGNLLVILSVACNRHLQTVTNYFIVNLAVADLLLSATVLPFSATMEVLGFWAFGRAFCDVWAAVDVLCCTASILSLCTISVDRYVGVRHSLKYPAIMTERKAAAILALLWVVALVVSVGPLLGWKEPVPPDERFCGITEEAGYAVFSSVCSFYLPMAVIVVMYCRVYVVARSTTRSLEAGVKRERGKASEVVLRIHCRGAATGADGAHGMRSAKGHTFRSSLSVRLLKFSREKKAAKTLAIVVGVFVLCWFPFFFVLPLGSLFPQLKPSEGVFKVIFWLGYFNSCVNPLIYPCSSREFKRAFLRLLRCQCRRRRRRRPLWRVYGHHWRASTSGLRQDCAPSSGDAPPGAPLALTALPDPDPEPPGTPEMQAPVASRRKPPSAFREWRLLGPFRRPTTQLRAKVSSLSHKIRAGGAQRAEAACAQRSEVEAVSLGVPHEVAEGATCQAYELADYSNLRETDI

[14] = test system: Hepatocyte growth factor receptor (Homo sapiens), P08581 [M1250T]; conditions: Compound concentration 1000.0 nM
[15] = molecular target: Serine/threonine-protein kinase pim-2 (Homo sapiens) (UniProt Q9P1W9); conditions: Compound concentration 1000.0 nM
[16] = molecular target: Serine/threonine-protein kinase DCLK1 (Homo sapiens) (UniProt O15075); conditions: Compound concentration 1000.0 nM
[17] = molecular target: Phosphatidylinositol 5-phosphate 4-kinase type-2 gamma (Homo sapiens) (UniProt Q8TBX8); conditions: Compound concentration 1000.0 nM
[18] = molecular target: Serine/threonine-protein kinase ULK1 (Homo sapiens) (UniProt O75385); conditions: Compound concentration 1000.0 nM
Serine/threonine-protein kinase ULK1 (Homo sapiens), sequence (O75385 whole entry): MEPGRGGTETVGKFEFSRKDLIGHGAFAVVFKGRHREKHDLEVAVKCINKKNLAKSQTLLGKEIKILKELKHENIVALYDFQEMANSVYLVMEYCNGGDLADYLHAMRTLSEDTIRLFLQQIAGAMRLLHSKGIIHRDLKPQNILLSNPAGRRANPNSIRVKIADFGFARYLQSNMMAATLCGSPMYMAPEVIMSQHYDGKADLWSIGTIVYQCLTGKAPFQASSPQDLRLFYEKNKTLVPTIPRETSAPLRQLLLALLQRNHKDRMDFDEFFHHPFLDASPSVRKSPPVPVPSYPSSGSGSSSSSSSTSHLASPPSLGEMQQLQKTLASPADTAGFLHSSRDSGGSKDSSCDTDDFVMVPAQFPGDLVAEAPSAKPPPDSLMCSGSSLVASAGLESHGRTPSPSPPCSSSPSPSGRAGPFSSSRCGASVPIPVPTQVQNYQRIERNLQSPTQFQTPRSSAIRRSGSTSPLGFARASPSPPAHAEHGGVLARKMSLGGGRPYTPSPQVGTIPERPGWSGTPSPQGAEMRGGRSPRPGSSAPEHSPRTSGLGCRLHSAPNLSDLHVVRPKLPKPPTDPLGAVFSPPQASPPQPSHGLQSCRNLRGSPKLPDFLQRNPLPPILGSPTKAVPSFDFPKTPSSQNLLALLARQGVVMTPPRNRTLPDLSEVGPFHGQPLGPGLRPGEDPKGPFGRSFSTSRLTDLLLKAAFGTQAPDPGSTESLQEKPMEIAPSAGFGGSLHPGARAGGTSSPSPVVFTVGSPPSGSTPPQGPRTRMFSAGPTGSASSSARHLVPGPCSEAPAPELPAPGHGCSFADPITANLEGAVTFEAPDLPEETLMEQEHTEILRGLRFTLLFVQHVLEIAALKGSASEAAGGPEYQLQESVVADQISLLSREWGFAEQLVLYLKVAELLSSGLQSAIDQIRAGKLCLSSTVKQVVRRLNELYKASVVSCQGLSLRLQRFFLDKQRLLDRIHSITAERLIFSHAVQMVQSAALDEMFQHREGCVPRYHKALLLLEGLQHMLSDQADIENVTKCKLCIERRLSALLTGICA

[19] = molecular target: Dual specificity tyrosine-phosphorylation-regulated kinase 1B (Homo sapiens) (UniProt Q9Y463); conditions: Compound concentration 1000.0 nM
[20] = test system: Phosphatidylinositol 4,5-bisphosphate 3-kinase catalytic subunit alpha isoform (Homo sapiens), P42336 [Q546K]; conditions: Compound concentration 1000.0 nM
[21] = molecular target: Muscle, skeletal receptor tyrosine-protein kinase (Homo sapiens) (UniProt O15146); conditions: Compound concentration 1000.0 nM
[22] = molecular target: Serine/threonine-protein kinase SIK3 (Homo sapiens) (UniProt Q9Y2K2); conditions: Compound concentration 1000.0 nM
[23] = molecular target: RAC-gamma serine/threonine-protein kinase (Homo sapiens) (UniProt Q9Y243); conditions: Compound concentration 1000.0 nM
[24] = molecular target: Sodium-dependent dopamine transporter (Homo sapiens, UniProt Q01959); conditions: Compound concentration 10.0 uM
Sodium-dependent dopamine transporter, sequence (Q01959 whole entry): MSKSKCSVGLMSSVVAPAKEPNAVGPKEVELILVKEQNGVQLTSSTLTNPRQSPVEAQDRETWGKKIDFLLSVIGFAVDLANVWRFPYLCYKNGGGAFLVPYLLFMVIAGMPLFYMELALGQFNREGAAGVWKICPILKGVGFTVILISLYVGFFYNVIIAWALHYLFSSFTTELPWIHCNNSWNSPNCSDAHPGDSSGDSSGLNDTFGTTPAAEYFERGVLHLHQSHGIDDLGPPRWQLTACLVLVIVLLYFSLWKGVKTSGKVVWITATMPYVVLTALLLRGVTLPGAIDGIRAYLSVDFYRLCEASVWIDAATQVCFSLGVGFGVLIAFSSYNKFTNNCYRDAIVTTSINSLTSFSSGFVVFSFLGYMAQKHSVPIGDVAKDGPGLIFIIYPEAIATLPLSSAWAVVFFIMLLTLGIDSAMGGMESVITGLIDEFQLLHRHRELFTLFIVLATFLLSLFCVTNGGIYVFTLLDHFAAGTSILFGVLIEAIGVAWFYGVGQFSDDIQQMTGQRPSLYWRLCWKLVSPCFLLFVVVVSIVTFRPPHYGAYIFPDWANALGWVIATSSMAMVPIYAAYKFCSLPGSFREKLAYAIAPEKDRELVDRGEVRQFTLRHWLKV

[25] = test system: Tyrosine-protein kinase ABL1 (Homo sapiens), P00519 [Y253F]; conditions: Compound concentration 1000.0 nM
[26] = molecular target: Mitogen-activated protein kinase kinase kinase kinase 3 (Homo sapiens) (UniProt Q8IVH8); conditions: Compound concentration 1000.0 nM
[27] = molecular target: Serine/threonine-protein kinase SBK1 (Homo sapiens) (UniProt Q52WX2); conditions: Compound concentration 1000.0 nM
Serine/threonine-protein kinase SBK1 (Homo sapiens), sequence (Q52WX2 whole entry): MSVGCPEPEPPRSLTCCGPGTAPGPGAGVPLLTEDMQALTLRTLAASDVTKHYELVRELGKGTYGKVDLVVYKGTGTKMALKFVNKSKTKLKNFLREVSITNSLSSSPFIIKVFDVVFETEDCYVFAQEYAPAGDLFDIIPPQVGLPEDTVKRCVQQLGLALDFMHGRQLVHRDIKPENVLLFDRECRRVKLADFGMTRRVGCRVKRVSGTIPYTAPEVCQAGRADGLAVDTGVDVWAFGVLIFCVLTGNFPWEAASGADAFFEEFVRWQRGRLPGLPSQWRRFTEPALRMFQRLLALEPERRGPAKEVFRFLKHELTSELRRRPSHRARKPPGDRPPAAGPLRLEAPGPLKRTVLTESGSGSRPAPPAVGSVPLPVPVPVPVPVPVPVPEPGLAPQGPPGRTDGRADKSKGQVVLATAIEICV

[28] = molecular target: Serine/threonine-protein kinase WNK3 (Homo sapiens) (UniProt Q9BYP7); conditions: Compound concentration 1000.0 nM
[29] = molecular target: Mitogen-activated protein kinase kinase kinase 5 (Homo sapiens) (UniProt Q99683); conditions: Compound concentration 1000.0 nM
[30] = molecular target: Serine/threonine-protein kinase 17B (Homo sapiens) (UniProt O94768); conditions: Compound concentration 1000.0 nM
Serine/threonine-protein kinase 17B (Homo sapiens), sequence (O94768 whole entry): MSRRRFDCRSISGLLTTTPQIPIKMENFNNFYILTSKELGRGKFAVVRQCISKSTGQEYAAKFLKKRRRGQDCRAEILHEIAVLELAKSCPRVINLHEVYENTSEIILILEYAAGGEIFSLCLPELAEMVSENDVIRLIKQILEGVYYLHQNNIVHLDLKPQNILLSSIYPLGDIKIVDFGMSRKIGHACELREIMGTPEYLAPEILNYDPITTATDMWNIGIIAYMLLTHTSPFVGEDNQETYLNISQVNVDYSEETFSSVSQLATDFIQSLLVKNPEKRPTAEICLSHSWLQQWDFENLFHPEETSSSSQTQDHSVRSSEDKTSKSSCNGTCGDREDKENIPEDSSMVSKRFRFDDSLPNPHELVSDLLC

[31] = molecular target: Calcium/calmodulin-dependent protein kinase type 1G (Homo sapiens) (UniProt Q96NX5); conditions: Compound concentration 1000.0 nM
Calcium/calmodulin-dependent protein kinase type 1G (Homo sapiens), sequence (Q96NX5 whole entry): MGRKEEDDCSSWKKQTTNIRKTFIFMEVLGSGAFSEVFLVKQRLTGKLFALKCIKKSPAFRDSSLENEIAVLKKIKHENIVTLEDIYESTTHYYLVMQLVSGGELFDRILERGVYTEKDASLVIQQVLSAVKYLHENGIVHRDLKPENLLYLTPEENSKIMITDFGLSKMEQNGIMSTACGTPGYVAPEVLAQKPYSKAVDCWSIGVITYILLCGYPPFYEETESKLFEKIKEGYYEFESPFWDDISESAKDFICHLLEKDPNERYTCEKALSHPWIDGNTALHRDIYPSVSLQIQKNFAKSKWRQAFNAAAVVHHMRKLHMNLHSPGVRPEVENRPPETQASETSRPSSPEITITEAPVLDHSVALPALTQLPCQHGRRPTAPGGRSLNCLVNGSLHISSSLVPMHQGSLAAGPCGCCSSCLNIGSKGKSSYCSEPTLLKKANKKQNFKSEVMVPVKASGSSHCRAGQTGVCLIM

[32] = molecular target: NT-3 growth factor receptor (Homo sapiens) (UniProt Q16288); conditions: Compound concentration 1000.0 nM
[33] = molecular target: Ephrin type-B receptor 3 (Homo sapiens) (UniProt P54753); conditions: Compound concentration 1000.0 nM
[34] = molecular target: Serine/threonine-protein kinase MARK1 (Homo sapiens) (UniProt Q9P0L2); conditions: Compound concentration 1000.0 nM
[35] = molecular target: Casein kinase I isoform gamma-1 (Homo sapiens) (UniProt Q9HCP0); conditions: Compound concentration 1000.0 nM
[36] = molecular target: Activin receptor type-1B (Homo sapiens) (UniProt P36896); conditions: Compound concentration 1000.0 nM
[37] = molecular target: Serine/threonine-protein kinase 17A (Homo sapiens) (UniProt Q9UEE5); conditions: Compound concentration 1000.0 nM

Receptor-interacting serine/threonine-protein kinase 2 (Homo sapiens), sequence (O43353 whole entry): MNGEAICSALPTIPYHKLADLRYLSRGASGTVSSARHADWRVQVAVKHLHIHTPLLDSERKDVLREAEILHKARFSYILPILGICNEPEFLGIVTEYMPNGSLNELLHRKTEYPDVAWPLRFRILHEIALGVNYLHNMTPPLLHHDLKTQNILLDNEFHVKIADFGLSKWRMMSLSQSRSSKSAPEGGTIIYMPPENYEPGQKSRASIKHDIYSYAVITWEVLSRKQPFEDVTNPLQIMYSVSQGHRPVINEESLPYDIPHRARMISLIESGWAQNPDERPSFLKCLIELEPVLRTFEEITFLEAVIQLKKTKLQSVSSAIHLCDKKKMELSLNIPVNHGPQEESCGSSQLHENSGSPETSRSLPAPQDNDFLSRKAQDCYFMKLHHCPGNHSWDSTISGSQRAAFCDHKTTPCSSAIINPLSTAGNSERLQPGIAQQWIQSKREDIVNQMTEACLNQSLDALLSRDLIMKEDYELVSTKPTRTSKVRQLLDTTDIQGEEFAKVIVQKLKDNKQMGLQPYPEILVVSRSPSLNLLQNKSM
Serine/threonine-protein kinase 16 (Homo sapiens), sequence (O75716 whole entry): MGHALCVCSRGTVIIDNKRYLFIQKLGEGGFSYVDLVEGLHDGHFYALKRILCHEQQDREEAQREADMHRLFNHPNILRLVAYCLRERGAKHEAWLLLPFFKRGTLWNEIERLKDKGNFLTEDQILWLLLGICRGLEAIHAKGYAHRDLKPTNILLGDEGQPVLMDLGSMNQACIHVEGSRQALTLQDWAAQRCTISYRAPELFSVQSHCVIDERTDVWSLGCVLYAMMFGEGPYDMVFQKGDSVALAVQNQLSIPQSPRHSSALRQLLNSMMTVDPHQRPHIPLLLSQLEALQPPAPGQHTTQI

O=C(O)c1cc(-c2ccc(C3CCNCC3)cc2)c2ccc(-c3ccc(C(F)(F)F)cc3)cc2c1 [PPTN]
inactive: residual activity [1] 100% | residual activity [2] 100% | residual activity [3] 100% | residual activity [4] 100% | residual activity [5] 100% | inhibition [6] 19.3% | residual activity [7] 100% | residual activity [8] 100% | residual activity [9] 100% | residual activity [10] 100% | inhibition [11] 10.9% | residual activity [12] 100% | inhibition [13] 33.5% | residual activity [14] 86% | residual activity [15] 100% | residual activity [16] 84% | residual activity [17] 100% | residual activity [18] 100% | residual activity [19] 88% | residual activity [20] 100% | residual activity [21] 90% | residual activity [22] 100% | residual activity [23] 100% | inhibition [24] 37.7% | residual activity [25] 73% | residual activity [26] 100% | residual activity [27] 100% | residual activity [28] 100% | residual activity [29] 100% | residual activity [30] 100% | residual activity [31] 100% | residual activity [32] 100% | residual activity [33] 100% | residual activity [34] 100% | residual activity [35] 100% | residual activity [36] 100% | residual activity [37] 100%

Cc1c(C(=O)O)cc(-c2ccc(C3CCNCC3)cc2)c2ccc(-c3ccc(C(F)(F)F)cc3)cc12 [PPTN-NC]
inactive: residual activity [1] 100% | residual activity [2] 100% | residual activity [3] 100% | residual activity [4] 100% | residual activity [5] 100% | inhibition [6] 12.6% | residual activity [7] 100% | residual activity [8] 100% | residual activity [9] 100% | residual activity [10] 100% | inhibition [11] 19.3% | residual activity [12] 100% | inhibition [13] 13.3% | residual activity [14] 97% | residual activity [15] 100% | residual activity [16] 81% | residual activity [17] 100% | residual activity [18] 100% | residual activity [19] 74% | residual activity [20] 100% | residual activity [21] 100% | residual activity [22] 100% | residual activity [23] 100% | inhibition [24] 31.2% | residual activity [25] 87% | residual activity [26] 100% | residual activity [27] 100% | residual activity [28] 100% | residual activity [29] 100% | residual activity [30] 100% | residual activity [31] 100% | residual activity [32] 100% | residual activity [33] 100% | residual activity [34] 100% | residual activity [35] 100% | residual activity [36] 100% | residual activity [37] 99%
